Test results published in patent publication US8299048B2, “Hexahydrocyclopentyl[f]indazole sulfonamides and derivatives thereof as selective glucocorticoid receptor modulators” (Merck Sharp & Dohme Corp., priority 2008, dated 2012).
pEC50: −log10 of the molar value.

Legend:
human GR [1] = biological target: T1, human GR (Homo sapiens, UniProt P04150); assay: Trans-Activation Modulation of Glucocorticoid Receptor (GRAMMER), MMTV-LUC reporter, agonist mode; format: cell-based; set-up: endogenous in cells; details: for Emax: A549, A549 cells, maximum activity, read-out: Transactivation A549 Cells GRAMMER Emax; for pEC50: A549 cells, inflection point, read-out: Transactivation A549 Cells GRAMMER IP
T1 sequence (P04150 1-777): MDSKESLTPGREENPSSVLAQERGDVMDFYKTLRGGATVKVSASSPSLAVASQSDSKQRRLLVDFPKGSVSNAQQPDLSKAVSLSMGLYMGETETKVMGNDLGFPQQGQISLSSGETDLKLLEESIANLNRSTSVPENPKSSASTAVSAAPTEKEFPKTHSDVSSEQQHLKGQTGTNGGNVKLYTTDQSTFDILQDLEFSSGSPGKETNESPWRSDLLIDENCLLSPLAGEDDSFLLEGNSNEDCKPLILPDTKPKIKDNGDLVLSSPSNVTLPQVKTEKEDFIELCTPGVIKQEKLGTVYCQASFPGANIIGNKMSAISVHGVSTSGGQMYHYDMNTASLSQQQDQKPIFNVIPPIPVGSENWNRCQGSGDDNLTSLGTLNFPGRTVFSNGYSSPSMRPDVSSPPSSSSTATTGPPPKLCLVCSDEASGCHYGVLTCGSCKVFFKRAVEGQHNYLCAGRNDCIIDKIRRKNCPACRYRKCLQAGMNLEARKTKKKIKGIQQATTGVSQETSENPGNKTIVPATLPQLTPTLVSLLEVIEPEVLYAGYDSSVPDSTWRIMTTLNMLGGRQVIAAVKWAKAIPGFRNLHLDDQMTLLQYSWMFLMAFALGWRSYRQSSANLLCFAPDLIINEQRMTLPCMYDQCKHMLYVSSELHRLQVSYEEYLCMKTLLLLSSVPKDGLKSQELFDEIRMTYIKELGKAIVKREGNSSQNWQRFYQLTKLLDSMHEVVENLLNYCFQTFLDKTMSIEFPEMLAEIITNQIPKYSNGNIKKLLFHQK
Procedure, shortened: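 Readout is luciferase from a modified MMTV LTR promoter after 24 h compound exposure alongside 10 nM dexamethasone (100% activity reference), DMSO ≤1%.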

human GR [2] = biological target: T1, human GR; assay: Transrepression Assay (GITAR), TNFα-β-lactamase reporter in U937 cells; format: cell-based; set-up: U937 cells contain an endogenous glucocorticoid receptor (GR); endogenous in cells; host or cells: U937 cells stably transfected with the TNF-alpha promoter/beta-lactamase reporter; details: for GITAR > GRAMM % SEP: GITAR Emax minus GRAMMER Emax; for pEC50: U937 cells, inflection point, read-out: Transrepression U937 Cells GITAR IP
Procedure, shortened: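 Stable TNF-α-promoter/β-lactamase U937 line, endogenous GR; 50,000 cells/well. Cmpd 30–45 min 37 °C → PMA 5 ng/ml + LPS 100 ng/ml final, 37 °C ~18 hr → CCF2-AM 70–90 min RT. 100 nM dex = 100%.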

[3] = U-937, U937 cells, maximum activity, read-out: Transrepression U937 Cells GITAR Emax
[4] = U-937, activity repressed by 100 nM dexamethasone alone set as 100%, read-out: maximal activity in the transrepression (GITAR) assay

Structure (SMILES) | Emax (human GR [1]) [%] | pEC50 (human GR [1]) | GITAR > GRAMM % SEP (human GR [2]) [%] | pEC50 (human GR [2]) | Emax (human GR [2]; [3]) [%] | Emax (human GR [2]; [4]) [%]
Cn1cc(S(=O)(=O)N(CC#N)C[C@H]2CCC3=Cc4c(cnn4-c4ccc(F)cc4)C[C@@]32C)c(C(F)(F)F)n1 [Example 32, N-(cyanomethyl)-N-{[(4αR,5S)-1-(4-fluorophenyl}-4α-methyl-1,4,4α,5,6,7-hexahydrocyclopenta[f]indazol-5-yl]methyl}-1-methyl-3-(trifluoromethyl)-1H-pyrazole-4-sulfonamide] | 29.4 | 6.06 | 33.7 | 6.26 | 63.1 | > 5
C[C@]12Cc3cnn(-c4ccc(F)cc4)c3C=C1CC[C@@H]2CN(CC#N)S(=O)(=O)c1cc(F)cc(F)c1 [Example 44, N-(cyanomethyl)-3,5-difluoro-N-{[(4αR,5S)-1-(4-fluorophenyl)-4α-methyl-1,4,4α,5,6,7-hexahydrocyclopenta[f]indazol-5-yl]methyl}benzenesulfonamide] | 44.8 | 6.21 | 20.8 | 5.98 | 65.6 | > 5
COCCN(C[C@H]1CCC2=Cc3c(cnn3-c3ccc(F)cc3)C[C@@]21C)S(=O)(=O)c1c(C)noc1C [Example 173, N-{[(4αR,5S)-1-(4-fluorophenyl)-4α-methyl-1,4,4α,5,6,7-hexahydrocyclopenta[f]indazol-5-yl]methyl}-N-(2-methoxyethyl)-3,5-dimethylisoxazole-4-sulfonamide] | 70.4 | 6.44 | 12.6 | 6.28 | 83 | > 5
C[C@]12Cc3cnn(-c4ccc(F)cc4)c3C=C1CC[C@@H]2CN(CC1CC1)S(=O)(=O)c1ccc(F)c(Cl)c1 [Example 15, 3-chloro-N-(cyclopropylmethyl)-4-fluoro-N-{[(4αR,5S)-1-(4-fluorophenyl)-4α-methyl-1,4,4α,5,6,7-hexahydrocyclopenta[f]indazol-5-yl]methyl}benzenesulfonamide] | 27.6 | 6.54 | 31.4 | 6.59 | 59 | > 5
Cc1oncc1S(=O)(=O)N(CC#N)C[C@H]1CCC2=Cc3c(cnn3-c3ccc(F)cc3)C[C@@]21C [Example 23, N-(cyanomethyl)-N-{[(4αR,5S)-1-(4-fluorophenyl)-4α-methyl-1,4,4α,5,6,7-hexahydrocyclopenta[f]indazol-5-yl]methyl}-5-methylisoxazole-4-sulfonamide] | 2.7 | 5.06 | 31.3 | 5.65 | 34 | > 5
Cc1nn(C)c(Cl)c1S(=O)(=O)N(CC#N)C[C@H]1CCC2=Cc3c(cnn3-c3ccc(F)cc3)C[C@@]21C [Example 52, 5-chloro-N-(cyanomethyl)-N-{[(4αR,5S)-1-(4-fluorophenyl)-4α-methyl-1,4,4α,5,6,7-hexahydrocyclopenta[f]indazol-5-yl]methyl}-1,3-dimethyl-1H-pyrazole-4-sulfonamide] | 31.9 | 6.24 | 22.5 | 6.06 | 54.4 | > 5
CC([C@H]1CCC2=Cc3c(cnn3-c3ccc(F)cc3)C[C@@]21C)N(CCc1ccccn1)S(=O)(=O)Cc1cccnc1 (stereo partly drawn) [Example 197, N-{1-[(4αR)-1-(4-fluorophenyl)-4α-methyl-1,4,4α,5,6,7-hexahydrocyclopenta[f]indazol-5-yl]ethyl}-1-pyridin-3-yl-N-(2-pyridin-2-ylethyl)methanesulfonamide] | 43.7 | 6.11 | 1.8 | 5.98 | 45.5 | > 5

More lines, now with the values ahead:

Emax (human GR [1]) [%] | pEC50 (human GR [1]) | GITAR > GRAMM % SEP (human GR [2]) [%] | pEC50 (human GR [2]) | Emax (human GR [2]; [3]) [%] | Emax (human GR [2]; [4]) [%] | Structure (SMILES)
4.3 | 6.77 | 23.2 | 5.54 | 27.5 | > 5 | C[C@]12Cc3cnn(-c4ccc(F)cc4)c3C=C1CC[C@@H]2CN(Cc1ccccc1F)S(=O)(=O)c1cccc(C(N)=O)c1 [Example 192, 3-[((2-fluorobenzyl){[(4αR,5S)-1-(4-fluorophenyl)-4α-methyl-1,4,4α,5,6,7-hexahydrocyclopenta[f]indazol-5-yl]methyl}amino)sulfonyl]benzamide]
3.5 | 5.79 | 16.4 | 6.38 | 19.9 | > 5 | C[C@]12Cc3cnn(-c4ccc(F)cc4)c3C=C1CC[C@@H]2CN(CC#N)S(=O)(=O)Cc1cccc(C(F)(F)F)c1 [Example 30, N-(cyanomethyl)-N-{[(4αR,5S)-1-(4-fluorophenyl}-4α-methyl-1,4,4α,5,6,7-hexahydrocyclopenta[f]indazol-5-yl]methyl}-1-[3-(trifluoromethyl)phenyl]methanesulfonamide]
15.1 | 6.02 | 46.2 | 6.02 | 61.3 | > 5 | C[C@]12Cc3cnn(-c4ccc(F)cc4)c3C=C1CC[C@@H]2CN(CC#N)S(=O)(=O)c1ccccc1Cl [Example 50, 2-chloro-N-(cyanomethyl)-N-{[(4αR,5S)-1-(4-fluorophenyl)-4α-methyl-1,4,4α,5,6,7-hexahydrocyclopenta[f]indazol-5-yl]methyl}benzenesulfonamide]
20.7 | 6.08 | 34.0 | 6.17 | 54.8 | > 5 | Cc1ccc(S(=O)(=O)N(CC#N)C[C@H]2CCC3=Cc4c(cnn4-c4ccc(F)cc4)C[C@@]32C)s1 [Example 31, N-(cyanomethyl)-N-{[(4αR,5S)-1-(4-fluorophenyl}-4α-methyl-1,4,4α,5,6,7-hexahydrocyclopenta[f]indazol-5-yl]methyl}-5-methylthiophene-2-sulfonamide]
67.3 | 6.77 | 12.9 | 6.75 | 80.2 | > 5 | CN(C[C@H]1CCC2=Cc3c(cnn3-c3ccc(F)cc3)C[C@@]21C)S(=O)(=O)CC(F)(F)F [Example 177, 2,2,2-trifluoro-N-{[(4αR,5S)-1-(4-fluorophenyl)-4α-methyl-1,4,4α,5,6,7-hexahydrocyclopenta[f]indazol-5-yl]methyl}-N-methylethanesulfonamide]
68.1 | 6.04 | 1.6 | 6.43 | 69.7 | > 5 | C[C@]12Cc3cnn(-c4ccc(F)cc4)c3C=C1CC[C@@H]2CN(CC#N)S(=O)(=O)c1ccc(F)c(Cl)c1 [Example 20, 3-chloro-N-(cyanomethyl)-4-fluoro-N-{[(4αR,5S)-1-(4-fluorophenyl)-4α-methyl-1,4,4α,5,6,7-hexahydrocyclopenta[f]indazol-5-yl]methyl}benzenesulfonamide]
19.9 | 6.60 | 43.1 | 6.17 | 63 | > 5 | C[C@H](O)CN(C[C@H]1CCC2=Cc3c(cnn3-c3ccc(F)cc3)C[C@@]21C)S(=O)(=O)Cc1ccccc1C(N)=O [Example 185, 2-[({{[(4αR,5S)-1-(4-fluorophenyl)-4α-methyl-1,4,4α,5,6,7-hexahydrocyclopenta[f]indazol-5-yl]methyl}[(2S)-2-hydroxypropyl]amino}sulfonyl)methyl]benzamide]
21.6 | 6.38 | 38.7 | 6.25 | 60.3 | > 5 | C[C@@H](O)CN(C[C@H]1CCC2=Cc3c(cnn3-c3ccc(F)cc3)C[C@@]21C)S(=O)(=O)Cc1ccccc1C(N)=O [Example 184, 2-[({{[(4αR,5S)-1-(4-fluorophenyl)-4α-methyl-1,4,4α,5,6,7-hexahydrocyclopenta[f]indazol-5-yl]methyl}[(2R)-2-hydroxypropyl]amino}sulfonyl)methyl]benzamide]
